According to ChEMBL document CHEMBL6121006, “Marine natural product-inspired discovery of novel BRD4 inhibitors with anti-inflammatory activity” (Eur J Med Chem, 2025):
Calls of active or inactive are those of the source. The calls are words filed in the database; no cut-off is given here.

Legend:
[1] = molecular target: T1, Bromodomain-containing protein 4 (Homo sapiens, UniProt O60885); test: Inhibition of human recombinant BRD4 BD2 (349 to 460 residues) extracted from Escherichia coli BL21 (DE3) at 10 uM incubated for 2 hrs by TR-FRET assay relative to control
[2] = molecular target: T1, Bromodomain-containing protein 4; test: Inhibition of human recombinant BRD4 BD1 (42 to 167 residues) extracted from Escherichia coli BL21 (DE3) incubated for 2 hrs by TR-FRET assay
[3] = molecular target: T1, Bromodomain-containing protein 4; test: Inhibition of human recombinant BRD4 BD2 (349 to 460 residues) extracted from Escherichia coli BL21 (DE3) incubated for 2 hrs by TR-FRET assay
RAW264.7 [4] = test: Anti-inflammatory activity in mouse RAW264.7 cells assessed as inhibition of LPS-induced NO production at 10 uM preincubated with compound for 24 hrs followed by LPS stimulation by Griess reagent based analysis relative to control; format: functional; set-up: scale not given: the % may be the effect or the level left
RAW264.7 [5] = test: Anti-inflammatory activity in mouse RAW264.7 cells assessed as inhibition of LPS-induced NO production preincubated with compound for 24 hrs followed by LPS stimulation by Griess reagent based analysis; format: functional, cell-based
[6] = molecular target: Bromodomain-containing protein 3 (Homo sapiens) (UniProt Q15059); test: Inhibition of BRD3 BD2 (unknown origin) at 1 uM incubated for 2 hrs by TR-FRET assay relative to control
[7] = molecular target: Bromodomain testis-specific protein (Homo sapiens) (UniProt Q58F21); test: Inhibition of BRDT BD1 (unknown origin) at 1 uM incubated for 2 hrs by TR-FRET assay relative to control
[8] = molecular target: Bromodomain-containing protein 2 (Homo sapiens) (UniProt P25440); test: Inhibition of BRD2 BD2 (unknown origin) at 1 uM incubated for 2 hrs by TR-FRET assay relative to control
[9] = molecular target: T1, Bromodomain-containing protein 4; test: Induction of thermal stabilization of human recombinant BRD4 […] (42 to 167 residues) extracted from Escherichia coli BL21 (DE3) incubated for 30 mins by thermal shift assay
RAW264.7 [10] = test: Cytotoxicity against mouse RAW264.7 cells at 20 uM measured after 24 hrs by CCK8 method; format: functional, cell-based
THP-1 [11] = test: Cytotoxicity against human THP-1 cells at 20 uM measured after 24 hrs by CCK8 method; format: functional, cell-based
RAW264.7 [12] = test: Anti-inflammatory activity in mouse RAW264.7 cells assessed as inhibition of LPS-induced TNF-alpha expression preincubated with compound for 2 hrs followed by LPS stimulation and measured after 6 hrs by RT-qPCR analysis; format: functional, cell-based; details: dose 2.5-20 µM, time 8.0 hrs
THP-1 [13] = test: Anti-inflammatory activity in human THP-1 cells assessed as inhibition of LPS-induced TNF-alpha expression preincubated with compound for 2 hrs followed by LPS stimulation and measured after 6 hrs by RT-qPCR analysis; format: functional, cell-based; details: dose 2.5-20 µM, time 8.0 hrs
Mus musculus [14] = test: Antiinflammatory activity against C57BL/6 mouse acute inflammation model assessed as inhibition of LPS-induced IL-6 level at 50 to 100 mg/kg, po pre-administered for 2 hrs followed by LPS stimulation for 6 hrs by ELISA method; format: functional, organism-based; details: dose 50-100 mg/kg, time 8.0 hrs
RAW264.7 [15] = test: Anti-inflammatory activity in mouse RAW264.7 cells assessed as inhibition of LPS-induced TNF-alpha level preincubated with compound for 2 hrs followed by LPS stimulation and measured after 22 hrs by ELISA method; format: functional, cell-based; details: dose 2.5-20 µM, time 24.0 hrs
THP-1 [16] = test: Anti-inflammatory activity in human THP-1 cells assessed as inhibition of LPS-induced TNF-alpha level preincubated with compound for 2 hrs followed by LPS stimulation and measured after 22 hrs by ELISA method; format: functional, cell-based; details: dose 2.5-20 µM, time 24.0 hrs
Mus musculus [17] = test: Antiinflammatory activity against C57BL/6 mouse acute inflammation model assessed as reduction in LPS induced lung edema at 50 to 100 mg/kg, po pre-administered for 2 hrs followed by LPS stimulation for 6 hrs; format: functional, organism-based; details: dose 50-100 mg/kg, time 8.0 hrs
Mus musculus [18] = test: Antiinflammatory activity against C57BL/6 mouse acute inflammation model assessed as reduction in LPS induced lung destruction at 50 to 100 mg/kg, po pre-administered for 2 hrs followed by LPS stimulation for 6 hrs; format: functional, organism-based; details: dose 50-100 mg/kg, time 8.0 hrs
Mus musculus [19] = test: Antiinflammatory activity against LPS-induced C57BL/6 mouse acute inflammation model assessed as improvement of distorted hepatic lobular structure in liver at 50 to 100 mg/kg, po pre-administered for 2 hrs followed by LPS stimulation for 6 hrs; format: functional, organism-based; details: dose 50-100 mg/kg, time 8.0 hrs
Mus musculus [20] = test: Antiinflammatory activity against LPS-induced C57BL/6 mouse acute inflammation model assessed as improvement of excessive inflammatory cell infiltration in liver at 50 to 100 mg/kg, po pre-administered for 2 hrs followed by LPS stimulation for 6 hrs; format: functional, organism-based; details: dose 50-100 mg/kg, time 8.0 hrs
Mus musculus [21] = test: Antiinflammatory activity against LPS-induced C57BL/6 mouse acute inflammation model assessed as rescue of damaged renal tubule cells in kidney at 50 to 100 mg/kg, po pre-administered for 2 hrs followed by LPS stimulation for 6 hrs; format: functional, organism-based; details: dose 50-100 mg/kg, time 8.0 hrs
Mus musculus [22] = test: Antiinflammatory activity against LPS-induced C57BL/6 mouse acute inflammation model assessed as rescue of damaged glomerular cells in kidney at 50 to 100 mg/kg, po pre-administered for 2 hrs followed by LPS stimulation for 6 hrs; format: functional, organism-based; details: dose 50-100 mg/kg, time 8.0 hrs
Mus musculus [23] = test: Antiinflammatory activity against LPS-induced C57BL/6 mouse acute inflammation model assessed as rescue of increased inflammatory cell infiltration in kidney at 50 to 100 mg/kg, po pre-administered for 2 hrs followed by LPS stimulation for 6 hrs; format: functional, organism-based; details: dose 50-100 mg/kg, time 8.0 hrs
Mus musculus [24] = test: Antiinflammatory activity against LPS-induced C57BL/6 mouse acute inflammation model assessed as reduction of renal injury at 100 mg/kg, po pre-administered for 2 hrs followed by LPS stimulation for 6 hrs; format: functional, organism-based; details: time 8.0 hrs
Mus musculus [25] = test: Antiinflammatory activity against LPS-induced C57BL/6 mouse acute inflammation model assessed as improvement of internal brush boundary structure at 100 mg/kg, po pre-administered for 2 hrs followed by LPS stimulation for 6 hrs; format: functional, organism-based; details: time 8.0 hrs
Mus musculus [26] = test: Antiinflammatory activity against LPS-induced C57BL/6 mouse acute inflammation model assessed as decrease in infiltration of renal interstitial inflammatory cells at 100 mg/kg, po pre-administered for 2 hrs followed by LPS stimulation for 6 hrs; format: functional, organism-based; details: time 8.0 hrs
[27] = Toxicity in C57BL/6 mouse effect on heart at 100 mg/kg, po measured after 24 hrs; format: organism-based; details: in vivo
[28] = Toxicity in C57BL/6 mouse effect on kidney at 100 mg/kg, po measured after 24 hrs; format: organism-based; details: in vivo
[29] = Toxicity in C57BL/6 mouse effect on intestine at 100 mg/kg, po measured after 24 hrs; format: organism-based; details: in vivo

Chain of Bromodomain-containing protein 3 (Homo sapiens) (Q15059 2-726 limits assumed): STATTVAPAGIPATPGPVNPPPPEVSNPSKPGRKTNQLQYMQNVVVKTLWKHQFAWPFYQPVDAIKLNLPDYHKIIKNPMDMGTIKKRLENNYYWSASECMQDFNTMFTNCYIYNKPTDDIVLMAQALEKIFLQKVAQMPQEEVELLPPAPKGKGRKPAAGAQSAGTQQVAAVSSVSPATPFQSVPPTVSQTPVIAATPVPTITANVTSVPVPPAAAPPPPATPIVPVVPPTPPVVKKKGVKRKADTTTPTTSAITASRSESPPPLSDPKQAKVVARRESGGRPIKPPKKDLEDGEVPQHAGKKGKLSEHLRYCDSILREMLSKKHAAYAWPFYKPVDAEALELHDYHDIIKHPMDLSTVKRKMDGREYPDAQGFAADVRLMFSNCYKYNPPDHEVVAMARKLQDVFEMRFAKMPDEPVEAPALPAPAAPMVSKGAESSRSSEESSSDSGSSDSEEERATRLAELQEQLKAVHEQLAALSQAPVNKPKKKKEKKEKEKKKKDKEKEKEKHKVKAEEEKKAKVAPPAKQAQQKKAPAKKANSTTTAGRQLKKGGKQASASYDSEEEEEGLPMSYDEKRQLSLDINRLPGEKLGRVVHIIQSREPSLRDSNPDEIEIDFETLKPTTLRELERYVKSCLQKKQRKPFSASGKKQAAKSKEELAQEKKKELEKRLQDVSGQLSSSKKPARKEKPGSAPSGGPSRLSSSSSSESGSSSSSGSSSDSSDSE
Chain of Bromodomain-containing protein 2 (Homo sapiens) (P25440 whole entry, looked up, the tested form may be a part): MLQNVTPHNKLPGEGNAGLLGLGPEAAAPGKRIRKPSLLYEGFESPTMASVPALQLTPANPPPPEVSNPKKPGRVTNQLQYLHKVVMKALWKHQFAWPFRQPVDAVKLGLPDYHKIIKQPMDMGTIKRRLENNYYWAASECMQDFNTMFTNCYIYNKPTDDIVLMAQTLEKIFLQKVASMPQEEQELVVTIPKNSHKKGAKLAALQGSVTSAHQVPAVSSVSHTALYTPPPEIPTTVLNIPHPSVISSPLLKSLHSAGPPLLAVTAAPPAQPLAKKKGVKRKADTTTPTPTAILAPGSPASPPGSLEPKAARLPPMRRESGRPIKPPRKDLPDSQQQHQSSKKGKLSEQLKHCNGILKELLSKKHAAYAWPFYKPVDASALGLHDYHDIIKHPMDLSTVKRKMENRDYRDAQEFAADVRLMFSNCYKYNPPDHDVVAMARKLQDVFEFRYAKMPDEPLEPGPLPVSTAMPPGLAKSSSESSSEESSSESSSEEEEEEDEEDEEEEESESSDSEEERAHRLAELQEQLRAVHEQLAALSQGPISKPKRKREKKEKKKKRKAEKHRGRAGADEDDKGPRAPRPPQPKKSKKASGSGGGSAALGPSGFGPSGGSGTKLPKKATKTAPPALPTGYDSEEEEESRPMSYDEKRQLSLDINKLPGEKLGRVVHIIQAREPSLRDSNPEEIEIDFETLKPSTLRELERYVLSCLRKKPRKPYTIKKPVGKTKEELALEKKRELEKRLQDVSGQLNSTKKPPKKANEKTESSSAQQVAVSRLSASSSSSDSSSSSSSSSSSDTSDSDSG

## COc1ccc(/C=C/c2nc3cc(OC)cc(OC)c3c(=O)[nH]2)cc1
[1]
  inhibition: 89%
[2]
  IC50: 3810 nM
[3]
  IC50: 120 nM
RAW264.7 [4]
  Activity: 106%
RAW264.7 [5]
  IC50: 1980 nM
[6]
  inhibition: 44%
[7]
  inhibition: 6%
[8]
  inhibition: 30%
[9]
  Activity: Active
RAW264.7 [10]
  Activity: inactive
THP-1 [11]
  Activity: inactive
RAW264.7 [12]
  Activity: Dose-dependent-effect
THP-1 [13]
  Activity: Dose-dependent-effect
Mus musculus [14]
  Activity: Active
RAW264.7 [15]
  Activity: Dose-dependent-effect
THP-1 [16]
  Activity: Dose-dependent-effect
Mus musculus [17]
  Activity: Active
Mus musculus [18]
  Activity: Active
Mus musculus [19]
  Activity: Active
Mus musculus [20]
  Activity: Active
Mus musculus [21]
  Activity: Active
Mus musculus [22]
  Activity: Active
Mus musculus [23]
  Activity: Active
Mus musculus [24]
  Activity: Active
Mus musculus [25]
  Activity: Active
Mus musculus [26]
  Activity: Active
[27]
  Activity: Non-toxic
[28]
  Activity: Non-toxic
[29]
  Activity: Non-toxic
